Laboratory results as given in US20250129045A1, “SMALL MOLECULE PIM AND MTOR KINASE INHIBITOR AND METHODS OF USE THEREOF” (Arizona Board of Regents on Behalf of the University of …, priority 2022, published 2025).
“Also recorded” adds a separate entry of the source.

Tests used:
Pim1 [1] = molecular target: T1, Pim1 (Homo sapiens, UniProt P11309); assay: Surface plasmon resonance (SPR) binding of VBT5445 to Pim1; details: 500 nM PIM447 vs DMSO
Description: (§1) FIGS. 7A-7I show inhibition of VBT5445 (VBT) on Pim1 and EDC3 binding and phosphorylation. FIG. 7A: In vitro co-precipitation (Co-PPT) assay was performed with recombinant EDC3 and biotinylated Pim1 using Streptavidin beads with increasing concentrations of the Pim inhibitor VBT5445 (VBT). FIG. 7B: Kinase assays were performed with recombinant EDC3 and Pim1 with increasing concentrations of VBT. FIG. 7C: Cell lysates from PC3-LN4 cells cultured with DMSO, 10 μM VBT, 3 μM AZD5363 (AKTi) and the combination for 6 hrs were subjected to western blotting (WB). […] WBs were performed using the indicated antibodies. FIG. 7E: PC3-LN4 cells were seeded into 48 well plate and incubated with either DMSO, VBT, AZD5363 or the combination, for 4.5 days. A real-time imaging system (IncuCyte™) was used to measure cell proliferation using a non-label cell monolayer confluence approach. FIG. 7F-7H: GFP image in PC3 LN4 GFP EDC3 expressing cells treated with PIMi: VBT (5 μM) and VBT (5 μM)+AZD5363 (3 μM) for 6 hrs.
A virtual screening effort was mounted to find chemicals that interact outside of ATP binding site of Pim screening over 100,000 compounds followed by testing the top 303 by Surface Plasmon Resonance (SPR). Synthesis of the most likely candidate was achieved by the Arizona Center for Drug Discovery at the University of Arizona. […]

Pim1 [2] = molecular target: T1, Pim1; assay: Kinase assay with purified Pim1 and EDC3 (EDC3 S161 phosphorylation); format: biochemical; details: concentration of 1 μM
Description: as §1
Computer screening followed by surface plasmon resonance (SPR) yielded a lead compound VBT-5445 that can interact with the Pim-1 protein kinase. Enhancer of mRNA Decapping 3 (EDC3) is a substrate of the Pim kinase that regulates the decapping of messenger RNA, and its activity is modulated by Pim mediated phosphorylation. […]

Pim1 and EDC3 binding = Pim1 and EDC3 binding (Homo sapiens, UniProt P11309); assay: In vitro co-precipitation / co-immunoprecipitation of EDC3 with Pim1; details: VBT-5445 at concentrations higher than 1 μM
Pim1 and EDC3 binding, sequence (P11309 whole entry): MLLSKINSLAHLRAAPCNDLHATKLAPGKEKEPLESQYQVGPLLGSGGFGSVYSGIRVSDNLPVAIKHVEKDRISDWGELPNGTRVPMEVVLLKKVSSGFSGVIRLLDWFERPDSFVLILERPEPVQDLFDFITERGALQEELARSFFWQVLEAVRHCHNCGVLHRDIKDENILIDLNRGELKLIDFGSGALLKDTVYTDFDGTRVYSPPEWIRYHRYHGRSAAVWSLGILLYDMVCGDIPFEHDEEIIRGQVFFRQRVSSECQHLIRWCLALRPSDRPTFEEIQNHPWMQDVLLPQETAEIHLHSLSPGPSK
Description: as §1

PC3-LN4 cells [3] = assay: P-body (PB) number in PC3-LN4 GFP-EDC3 cells; format: cell-based, human; details: 6 h
Description: as §1
To measure PB numbers, PC3-LN4 PCa cells containing a CRISPR/Cas total knock-out of EDC3 were stably transduced with GFP-EDC3. When localized in PBs, GFP spots could be quantified. PBs were quantified at the University of Colorado Center for Drug Discovery using an Opera Phenix Plus high content screening system (PerkinElmer) Perkin Elmer G3 robotic system after drug treatment. Assays were carried out in quadruplicate and the mean number of PBs per cell and cell area calculated. An example of this assay is shown using […] buffered saline (HBSS) to induce PB formation.
Immunofluorescence: Immunofluorescence (IF) staining was performed on PC3-LN4 cells stably expressing EDC3-GFP. 1×10^4 cells were seeded in each chamber of an 8 well chamber slide (Nunc Lab-Tek II Chamber Slide System, Life Technologies) and cultured for 48 h. After attaching to the chamber slides cells were treated with DMSO, VB-5445 ([…]), AZD5363 (3 μM), or the combination for 6 h. Cells were then fixed with 4% paraformaldehyde in PBS for 15 min and subsequently permeabilized with 0.2% Triton X-100 in PBS. Cells were stained with diluted DAPI (1:4000) in 1% nor-mal goat serum in PBS. Cells were mounted with Prolong Gold Antifade mounting medium (Molecular Probes).

PC3-LN4 cells [4] = assay: Cell growth assay (IncuCyte) in PC3-LN4 prostate cancer cells; format: cell-based, human; details: for prostate cancer (PC3-LN4) growth, in combination with AKT/PI3K inhibitor: combination with AZD5363 or BKM120
Description: as §1
(§2) Cell growth assay: Tumor cells were seeded into 48 well plates (1000 cells/well) and treated with varied agents. The Incucyte real-time imaging system (Incucyte) was used to measure cell proliferation using a non-label cell monolayer confluence approach. The images were captured every 12 h. Graphs were generated using an integrated confluence metric as an alternative for cell numbers. At the end of the study cell growth was visualized by crystal violet staining.

[5] = tested on: T-cell acute lymphoblastic leukemia cell line DU528; assay: Cell viability (XTT) assay in T-ALL cells; format: cell-based; details: 72 h
Description: Cell viability (XTT) assay: T-ALL cells were seeded into 96 well plates at a density of 20,000 cells per well and treated with VBT-5445 for 72 h, using DMSO as control. Cell viability was measured using XTT cell proliferation assay (Trevigen Cat #4891-025-K) following the manufacturer's protocol. Briefly, XTT reagent was added to cell culture after the treatment and incubated for 4 h at 37° C. and 5% CO2. The absorbance of the colored formazan product was measured at 450 nm.

PC3-LN4 cells [6] = assay: Western blotting of PC3-LN4 cell lysates; format: cell-based, human
Description: as §1, with “FIG.” for “FIGS. 7A-7I show inhibition of VBT5445 (VBT) on Pim1 and EDC3 binding and phosphorylation. FIG.”
Extracts were subjected to Western blotting with the indicated antibodies.
(§3) Immunoblotting: Western blots were performed as described previously. Briefly, protein lysates (30 μg) were subjected to SDS-PAGE and transferred to nitrocellulose membranes. After blocking with 5% milk in TBST buffer for 30 min at room temperature, the membranes were incubated overnight at 4° C. with the Indicated primary antibody in 3% BSA in TBST. Specific proteins were detected with the corresponding HRP conjugated secondary antibody using enhanced chemiluminescence (GE Lifesciences, Piscataway, NJ).

[7] = Tolerability by gavage in mice; format: in vivo; details: 30 mg/kg by gavage in combination with AZD5363 40 mg/kg
Text: Maximum Tolerated Dose and Side Effect Profile. […] To obtain the maximum tolerated dose (MTD), the dose will be increased by 50% over the previous one at each ensuing treatment consisting of 3 mice given daily for 5 days. Mice will be observed for fur ruffling and behavior changes. Blood will be drawn, and the WBC count and blood chemistry will be determined to evaluate bone marrow, liver, and kidney toxicity. Together with pharmacokinetic profiling, this analysis will help determine the best dose and frequency of administration for this molecule.

[8] = tested on: PANC1 pancreatic cancer cells; assay: Growth inhibition of PANC1 pancreatic cancer cells; format: cell-based
Description: as §2
(§4) Because of ease of growth, PANC1 pancreatic cancer cells were used to test the activity of derivatives of VBT-5445 (FIG. 14). […] Using a doxycycline inducible Pim kinase vector in these tumor cells, this inhibition of phosphorylation was proportional to the level of Pim in these cells (FIG. 9). […] Inhibition of mTORC1 is known to stimulate the feedback activation of mTORC2 leading to AKT phosphorylation. […] The effect of these compounds on mTORC1 and 2 was still evident in PC3-LN4 cells that contained a knockout (KO) using CRISPR/CAS9 of either TSC2 or DEPDC5 (FIG. 12, lanes 4-9). TSC2 KO activated the Rheb GTPase while DEPDC5 KO activated the RAG GTPase both of which stimulate mTORC1 activity. Thus, GRG compounds were capable of inhibiting mTORC1 activity even when this kinase was highly activated.

mTORC = assay: Phosphorylation of mTORC substrates in PANC1 cells (Western blot); format: cell-based; details: overnight incubation, FIG. 19
Description: as §3, §4

Acetyl CoA carboxylase = Acetyl CoA carboxylase phosphorylation in LNCaP cells (Western blot); format: cell-based; details: LNCaP prostate cancer cell line
Description: LNCaP cells were treated in a 6 well plate with GRG-1-35 for the indicated times. Cells were scrapped and protein extracts subjected to SDS-PAGE and Western blotted with the antibodies shown.

T1 sequence (P11309 whole entry): as above

SMILES	increase of binding to Pim1 when PIM447 was added and bound to the ATP site (Pim1 [1]) [fold]	inhibition of EDC3 serine 161 phosphorylation by Pim1 (Pim1 [2])	co-immunoprecipitation of EDC3 with Pim (Pim1 and EDC3 binding)	number of P-bodies, with AKT inhibitor AZD5363 added (PC3-LN4 cells [3]; combination with AZD5363 (3 μM))	number of P-bodies (PC3-LN4 cells [3]; compound alone)	prostate cancer (PC3-LN4) growth, in combination with AKT/PI3K inhibitor (PC3-LN4 cells [4])	prostate cancer (PC3-LN4) growth, in combination with AKT/PI3K inhibitor (PC3-LN4 cells [4]; listed as VBT)	growth in culture of PC3-LN4 cells (PC3-LN4 cells [4]; compound alone)	growth of T-acute lymphoblastic leukemia cells [5]	ITGB1 protein level, combination with AZD5363 (AKTi) (PC3-LN4 cells [6])	cellular level of Pim kinases (PC3-LN4 cells [6])	cellular level of c-Myc protein (PC3-LN4 cells [6])	mTORC1 activity: phosphorylation of the S6 protein (PC3-LN4 cells [6])	weight loss or behavior changes [7]	growth inhibitory activity against PANC1 pancreatic cancer cells [8]	block of phosphorylation of mTORC substrates (AKT, 4E-BP1, S6) (mTORC)	phosphorylation of acetyl CoA carboxylase (Acetyl CoA carboxylase)
O=c1c(CNCc2cccnc2)cc2ccc(Cl)cc2n1CCOc1ccccc1 [VBT5445]	3	inhibited EDC3 phosphorylation	blocked the ability of Pim1 to coimmunoprecipitate with EDC3	further increased these numbers; also recorded: further increase P-body formation	increased PB numbers; also recorded: induces increased numbers of P-bodies	more active in inhibiting cancer growth	markedly inhibits the growth	markedly inhibits the growth	inhibited the growth	reduced	decreases the level of all Pim kinases	decrease	blocked mTORC1 activity	without any weight loss or behavior changes	–	–	–
O=c1c(CNCc2cc(Cl)ccn2)cc2ccc(Cl)cc2n1CCOc1ccccc1 [GRG-1-35]	–	–	–	–	–	–	–	–	–	–	–	–	–	–	most active	block the phosphorylation of mTORC substrates	Induction; also recorded: increased the phosphorylation of acetyl CoA carboxylase
